We go through one compound from paper PMC4493117, “Characterization of the Prokaryotic Sodium Channel NavSp Pore with a Microfluidic Bilayer Platform” (PLoS ONE, 2015).

This test has as its target NavSp pore (Ruegeria pomeroyi, UniProt Q6TMY8). To be noted: drug added to both sides of bilayer; 0.5 M NaCl, 10 mM HEPES, pH 7.4; room temperature; POPE:POPG 1:1.

Chain of NavSp pore (Q6TMY8 114-258 limits assumed): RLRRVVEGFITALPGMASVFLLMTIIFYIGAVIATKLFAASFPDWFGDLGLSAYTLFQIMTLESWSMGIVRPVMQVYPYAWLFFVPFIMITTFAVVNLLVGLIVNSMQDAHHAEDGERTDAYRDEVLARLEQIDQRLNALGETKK

With `COC(=O)C1=C(C)NC(C)=C(C(=O)OC)C1c1ccccc1[N+](=O)[O-]` [nifedipine], the IC50 – broadly, the concentration needed to halve the response being measured – was 2950 nM.
